According to patent publication US11939340B2, “CDK inhibitors and their use as pharmaceuticals” (Prelude Therapeutics Incorporated, priority 2022, dated 2024):

Tests used:
[1] = test system: pRB in OVCAR3 cells; assay: pRB ICW Assay in OVCAR3 Cells; assay type: cell-based; settings: Homo sapiens, OVCAR-3, incubated with compound for 2 hours, read-out: OVCAR3 p-RB ICW IC50
Outline: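 OVCAR3 cells seeded overnight, then exposed for 2 h at 37 °C to a 9-point half-log compound dilution series in duplicate; 10 μM reference compound defined maximum inhibition. Fixed, permeabilised cells stained in-cell western style with anti-phospho-RB antibody plus DRAQ5 nuclear stain; fluorescence read at 700 and 800 nm.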

[2] = biological target: CDK2/Cyclin E2 (Homo sapiens, UniProt P24941); assay: CDK2/CyclinE2 Enzymatic Activity Assay (TR-FRET); assay type: biochemical; settings: CDK2/CyclinE2 1 nM, ATP 1 mM, read-out: CDK2_El IC50
Outline: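 TR-FRET kinase assay with insect-cell CDK2/Cyclin E2 (1 nM) phosphorylating ULight-4E-BP1 (50 nM) at 1 mM ATP in HEPES pH 7.4 buffer; 9-dose 3-fold series preincubated 20 min, reaction started with 10 mM MgCl2, 45 min at 37 °C. EDTA quench, Eu-anti-P-4E-BP1 detection; IC50 from 4-parameter fit.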

[3] = biological target: T1, CDK4/Cyclin D1 (Homo sapiens, UniProt P11802); assay: CDK4/CyclinD1 Enzymatic Activity Assay (TR-FRET); assay type: biochemical; settings: CDK4/CyclinD1 1 nM, ATP 2 mM, read-out: CDK4_D1 IC50
T1 construct: purchased ProQinase; host or cells: insect cell
T1 sequence (P11802 whole entry): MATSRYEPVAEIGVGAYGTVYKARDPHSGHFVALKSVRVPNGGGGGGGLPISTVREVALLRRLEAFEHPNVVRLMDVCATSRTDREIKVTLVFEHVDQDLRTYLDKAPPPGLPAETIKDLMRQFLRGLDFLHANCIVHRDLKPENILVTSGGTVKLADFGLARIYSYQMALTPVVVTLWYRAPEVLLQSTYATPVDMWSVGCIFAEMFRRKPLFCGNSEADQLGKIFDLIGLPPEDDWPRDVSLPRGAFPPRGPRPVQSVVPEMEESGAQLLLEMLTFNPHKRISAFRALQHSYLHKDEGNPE
T1 sequence (P24385 whole entry partner): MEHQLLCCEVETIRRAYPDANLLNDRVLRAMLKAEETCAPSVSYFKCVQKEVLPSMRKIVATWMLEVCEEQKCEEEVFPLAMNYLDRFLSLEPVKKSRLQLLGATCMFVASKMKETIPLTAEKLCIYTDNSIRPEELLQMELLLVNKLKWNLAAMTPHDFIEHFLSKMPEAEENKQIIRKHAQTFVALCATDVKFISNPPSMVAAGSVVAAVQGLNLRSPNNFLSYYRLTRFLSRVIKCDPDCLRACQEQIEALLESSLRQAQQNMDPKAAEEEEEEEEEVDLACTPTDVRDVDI
Outline: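 Insect-cell-expressed CDK4/Cyclin D1 (1 nM) phosphorylated ULight-4E-BP1 (100 nM) with 2 mM ATP in HEPES pH 7.4 buffer with TCEP, after 20 min compound preincubation; 10 mM MgCl2 started the reaction, run 45 min at 37 °C. EDTA/Eu-anti-phospho-4E-BP1 TR-FRET readout; 9-point IC50 by four-parameter fit.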

Measured: IC50

CCC12CCCN1C(=O)c1cc(-c3nc(NC4CCN(S(C)(=O)=O)CC4)ncc3C)sc12 (stereo not drawn) [Example 16, 8a-Ethyl-2-[5-methyl-2-[(1-methylsulfonylpiperidin-4-yl)amino]pyrimidin-4-yl]-7,8-dihydro-6H-thieno[2,3-a]pyrrolizin-4-one]
≤ 100 nM: all assays above

CC12CCCCN1C(=O)c1cc(-c3nc(NC4CCN(S(C)(=O)=O)CC4)ncc3F)sc12 (stereo not drawn) [Example 6, 2-(5-Fluoro-2-((1-(methylsulfonyl)piperidin-4-yl)amino)pyrimidin-4-yl)-9a-methyl-7,8,9,9a-tetrahydrothieno[2,3-a]indolizin-4(6H)-one]
≤ 100 nM: all assays above
